Measurements taken from the NIST ThermoML archive (doi:10.1016/j.fluid.2015.12.029).

Columns and labels:
[1] = Liquid; for mass density: 298.15 K, 101.33 kPa, Vibrating tube method; for vapor or sublimation pressure: Ebulliometric method (Recirculating still)
[2] = Boiling temperature at pressure P; conditions: Liquid, Ebulliometric method (Recirculating still)

COC(C)=O [methyl ethanoate]
Conditions	mass density [kg/m3]
[1]	927.1

Conditions	Boiling temperature at pressure P [°C]	vapor or sublimation pressure [kPa]
[1], 305.65 K	–	40
[1], 312.68 K	–	53.33
[1], 318.45 K	–	66.66
[1], 323.36 K	–	79.99
[1], 327.68 K	–	93.32
[1], 330.04 K	–	101.3
[2], 40 kPa	32.50	–
[2], 53.33 kPa	39.53	–
[2], 66.66 kPa	45.30	–
[2], 79.99 kPa	50.21	–
[2], 93.32 kPa	54.53	–
[2], 101.3 kPa	56.89	–

CO [methanol]
Conditions	mass density [kg/m3]
[1]	786.56

Conditions	Boiling temperature at pressure P [°C]	vapor or sublimation pressure [kPa]
[1], 315.49 K	–	40
[1], 321.98 K	–	53.33
[1], 327.23 K	–	66.66
[1], 331.66 K	–	79.99
[1], 335.51 K	–	93.32
[1], 337.6 K	–	101.3
[2], 40 kPa	42.34	–
[2], 53.33 kPa	48.83	–
[2], 66.66 kPa	54.08	–
[2], 79.99 kPa	58.51	–
[2], 93.32 kPa	62.36	–
[2], 101.3 kPa	64.5	–

CCOC(=O)C(C)O (racemic) [DL-ethyl lactate]
Conditions	mass density [kg/m3]
[1]	1028.08

Conditions	Boiling temperature at pressure P [°C]	vapor or sublimation pressure [kPa]
[1], 396.91 K	–	40
[1], 405.49 K	–	53.33
[1], 412.44 K	–	66.66
[1], 418.34 K	–	79.99
[1], 423.47 K	–	93.32
[1], 426.1 K	–	101.3
[2], 40 kPa	123.76	–
[2], 53.33 kPa	132.34	–
[2], 66.66 kPa	139.29	–
[2], 79.99 kPa	145.19	–
[2], 93.32 kPa	150.32	–
[2], 101.3 kPa	153.0	–
